Test results reported in patent US20070128217A1 (priority 2003, published 2007).

Key:
[1] = tested on: control sera (pooled serum of ten healthy LUMC hospital workers; commercial negative donor pooled serum from the Dutch bloodbank); format: binding, human; parameters: Binding of Control serum LUMC to linear peptides / Binding of Control serum Blood-bank to linear peptides / Binding of Control serum LUMC to looped peptides / Binding of Control Serum Blood-Bank to Looped peptides / Binding of Control serum LUMC to linear peptides of the protein M of SARS-CoV Urbani / Binding of Control serum Blood-bank to linear peptides of the protein M of SARS-CoV Urbani / Binding of Control serum LUMC to looped peptides of the protein M of SARS-CoV Urbani / Binding of Control Serum Blood-Bank to Looped peptides of the protein M of SARS-CoV Urbani: unit not given here
[2] = tested on: antibodies in sera from SARS patients (sera 1a, 1b, 2, 6, 37, 62, London, SARS-yellow, SARS-green); format: binding, human; parameters: Binding of serum 6 to linear peptides of protein X1 of SARS-CoV Urbani / Binding of serum 37 to linear peptides of protein X1 of SARS-CoV Urbani / Binding of serum 6 to looped/cyclic peptide (PEPSCAN-ELISA) / Binding of serum 37 to looped/cyclic peptide (PEPSCAN-ELISA) / Binding of serum 37 to looped/cyclic peptides of protein X1 of SARS-CoV Urbani / Binding of serum 6 to linear peptides of protein X2 / Binding of serum 37 to linear peptides of protein X2 / Binding of serum 37 to looped/cyclic peptides of protein X2 of SARS-CoV Urbani / Binding of serum 6 to linear peptides of protein M of SARS-CoV Urbani / Binding of serum 37 to linear peptides of protein M of SARS-CoV Urbani / Binding of serum 6 to looped/cyclic peptides of protein M of SARS-CoV Urbani / Binding of serum 37 to looped/cyclic peptides of protein M of SARS-CoV Urbani / Binding of serum 6 to linear peptides of protein X3 of SARS-CoV Urbani / Binding of serum 37 to linear peptides of protein X3 of SARS-CoV Urbani / Binding of serum 37 to looped/cyclic peptides of protein X3 of SARS-CoV Urbani / Binding of serum 6 to linear peptides of protein X4 of SARS-CoV Urbani / Binding of serum 37 to linear peptides of protein X4 of SARS-CoV Urbani / Binding of serum 37 to looped/cyclic peptides of protein X4 of SARS-CoV Urbani / Binding of serum 6 to linear peptides of protein X5 of SARS-CoV Urbani / Binding of serum 37 to linear peptides of protein X5 of SARS-CoV Urbani / Binding of serum 37 to looped/cyclic peptides of protein X5 of SARS-CoV Urbani / Binding of serum 6 to linear peptides of protein N of SARS-CoV Urbani / Binding of serum 37 to linear peptides of protein N of SARS-CoV Urbani / Binding of serum 6 to linear peptide (PEPSCAN-ELISA) / Binding of serum 1a to looped/cyclic peptides of protein N of SARS-CoV Urbani / Binding of serum 1b to looped/cyclic peptides of protein N of SARS-CoV Urbani / Binding of serum 2 to looped/cyclic peptides of protein N of SARS-CoV Urbani / Binding of serum 6 to looped/cyclic peptides of protein N of SARS-CoV Urbani / Binding of serum 37 to looped/cyclic peptides of protein N of SARS-CoV Urbani / Binding of serum 62 to looped/cyclic peptides of protein N of SARS-CoV Urbani / Binding of serum London to looped/cyclic peptides of protein N of SARS-CoV Urbani / Binding of serum SARS-green to looped/cyclic peptides of protein N of SARS-CoV Urbani: unit not given here
[3] = tested on: rabbit serum obtained by immunizing a rabbit with the SARS-CoV strain Frankfurt 1; format: binding; parameters: Binding of a rabbit serum to linear peptides / Binding of a rabbit serum to looped peptides / Rabbit serum linear peptides / Rabbit serum looped peptides / Binding of a rabbit serum to linear peptides of protein N of SARS-CoV Urbani (Rabbit serum linear peptides) / Binding of a rabbit serum to looped/cyclic peptides of protein N of SARS-CoV Urbani (Rabbit serum looped peptides): unit not given here

RMCKYTQSTALQELL
Binding of Control Serum Blood-Bank to Looped peptides [1]: 0.7 | Binding of Control serum Blood-bank to linear peptides [1]: 0.8 | Binding of Control serum LUMC to linear peptides [1]: 0.7 | Binding of Control serum LUMC to looped peptides [1]: 0.6 | Binding of serum 1a to linear peptides of protein X2 [2]: 0.8 | Binding of serum 1a to looped/cyclic peptides of protein X2 of SARS-CoV Urbani [2]: 0.7 | Binding of serum 1b to linear peptides of protein X2 [2]: 0.7 | Binding of serum 1b to looped/cyclic peptides of protein X2 of SARS-CoV Urbani [2]: 0.7 | Binding of serum 2 to linear peptides of protein X2 [2]: 0.5 | Binding of serum 2 to looped/cyclic peptides of protein X2 of SARS-CoV Urbani [2]: 0.4 | Binding of serum 6 to linear peptides of protein X2 [2]: 0.4 | Binding of serum 6 to looped/cyclic peptides of protein X2 of SARS-CoV Urbani [2]: 0.3 | Binding of serum 37 to linear peptides of protein X2 [2]: 0.7 | Binding of serum 37 to looped/cyclic peptides of protein X2 of SARS-CoV Urbani [2]: 0.4 | Binding of serum 62 to linear peptides of protein X2 [2]: 0.8 | Binding of serum 62 to looped/cyclic peptides of protein X2 of SARS-CoV Urbani [2]: 0.7 | Binding of serum London to linear peptides of protein X2 [2]: 0.5 | Binding of serum London to looped/cyclic peptides of protein X2 of SARS-CoV Urbani [2]: 0.2 | Binding of serum SARS-green to linear peptides of protein X2 [2]: 0.6 | Binding of serum SARS-green to looped/cyclic peptides of protein X2 of SARS-CoV Urbani [2]: 0.6 | Binding of serum SARS-yellow to linear peptides of protein X2 [2]: 0.6 | Binding of serum SARS-yellow to looped/cyclic peptides of protein X2 of SARS-CoV Urbani [2]: 0.3 | Binding of a rabbit serum to linear peptides [3]: 0.4 | Binding of a rabbit serum to looped peptides [3]: 0.4

RPLMESELVIGAVII
Binding of Control Serum Blood-Bank to Looped peptides of the protein M of SARS-CoV Urbani [1]: 0.8 | Binding of Control serum Blood-bank to linear peptides of the protein M of SARS-CoV Urbani [1]: 0.6 | Binding of Control serum LUMC to linear peptides of the protein M of SARS-CoV Urbani [1]: 0.5 | Binding of Control serum LUMC to looped peptides of the protein M of SARS-CoV Urbani [1]: 0.8 | Binding of serum 1a to linear peptides of protein M of SARS-CoV Urbani [2]: 0.8 | Binding of serum 1b to linear peptides of protein M of SARS-CoV Urbani [2]: 0.6 | Binding of serum 2 to linear peptides of protein M of SARS-CoV Urbani [2]: 0.7 | Binding of serum 6 to linear peptides of protein M of SARS-CoV Urbani [2]: 0.3 | Binding of serum 37 to linear peptides of protein M of SARS-CoV Urbani [2]: 0.6 | Binding of serum 62 to linear peptides of protein M of SARS-CoV Urbani [2]: 0.9 | Binding of serum London to linear peptides of protein M of SARS-CoV Urbani [2]: 0.4 | Binding of serum SARS-green to linear peptides of protein M of SARS-CoV Urbani [2]: 0.3 | Binding of serum SARS-yellow to linear peptides of protein M of SARS-CoV Urbani [2]: 0.1 | Recognition of the peptide by sera of SARS-CoV infected individuals, and form (linear, looped/cyclic) in which it is recognized [2]: recognized in looped/cyclic form | Rabbit serum linear peptides [3]: 0.4 | Rabbit serum looped peptides [3]: 0.2

RQEEVQQELYSPLFL
Binding of Control Serum Blood-Bank to Looped peptides [1]: 0.8 | Binding of Control serum Blood-bank to linear peptides [1]: 0.7 | Binding of Control serum LUMC to linear peptides [1]: 0.6 | Binding of Control serum LUMC to looped peptides [1]: 0.9 | Binding of serum 1a to linear peptides of protein X4 of SARS-CoV Urbani [2]: 0.8 | Binding of serum 1b to linear peptides of protein X4 of SARS-CoV Urbani [2]: 0.6 | Binding of serum 2 to linear peptides of protein X4 of SARS-CoV Urbani [2]: 0.5 | Binding of serum 6 to linear peptides of protein X4 of SARS-CoV Urbani [2]: 0.5 | Binding of serum 37 to linear peptides of protein X4 of SARS-CoV Urbani [2]: 0.8 | Binding of serum 62 to linear peptides of protein X4 of SARS-CoV Urbani [2]: 0.8 | Binding of serum London to linear peptides of protein X4 of SARS-CoV Urbani [2]: 0.7 | Binding of serum SARS-green to linear peptides of protein X4 of SARS-CoV Urbani [2]: 0.7 | Binding of serum SARS-yellow to linear peptides of protein X4 of SARS-CoV Urbani [2]: 0.7 | Recognition of the peptide by sera of SARS-CoV infected individuals, and form (linear, looped/cyclic) in which it is recognized [2]: recognized in looped/cyclic form | Rabbit serum linear peptides [3]: 0.5 | Rabbit serum looped peptides [3]: 0.6

RRLLACLCKHKKVST
Binding of Control Serum Blood-Bank to Looped peptides [1]: 0.2 | Binding of Control serum Blood-bank to linear peptides [1]: 0.9 | Binding of Control serum LUMC to linear peptides [1]: 0.7 | Binding of Control serum LUMC to looped peptides [1]: 0.3 | Binding of serum 1a to looped/cyclic peptides of protein X2 of SARS-CoV Urbani [2]: 0.2 | Binding of serum 1b to looped/cyclic peptides of protein X2 of SARS-CoV Urbani [2]: 0.1 | Binding of serum 2 to looped/cyclic peptides of protein X2 of SARS-CoV Urbani [2]: 0.1 | Binding of serum 6 to looped/cyclic peptides of protein X2 of SARS-CoV Urbani [2]: 0.2 | Binding of serum 37 to looped/cyclic peptides of protein X2 of SARS-CoV Urbani [2]: 0.2 | Binding of serum 62 to looped/cyclic peptides of protein X2 of SARS-CoV Urbani [2]: 0.4 | Binding of serum London to looped/cyclic peptides of protein X2 of SARS-CoV Urbani [2]: 0.2 | Binding of serum SARS-green to looped/cyclic peptides of protein X2 of SARS-CoV Urbani [2]: 0.2 | Binding of serum SARS-yellow to looped/cyclic peptides of protein X2 of SARS-CoV Urbani [2]: 0.2 | Recognition of the peptide by sera of SARS-CoV infected individuals, and form (linear, looped/cyclic) in which it is recognized [2]: recognized in linear form | Binding of a rabbit serum to linear peptides [3]: 0.6 | Binding of a rabbit serum to looped peptides [3]: 0.3

RRRLLACLCKHKKVS
Binding of Control Serum Blood-Bank to Looped peptides [1]: 0.3 | Binding of Control serum Blood-bank to linear peptides [1]: 0.7 | Binding of Control serum LUMC to linear peptides [1]: 0.6 | Binding of Control serum LUMC to looped peptides [1]: 0.2 | Binding of serum 1a to looped/cyclic peptides of protein X2 of SARS-CoV Urbani [2]: 0.2 | Binding of serum 1b to looped/cyclic peptides of protein X2 of SARS-CoV Urbani [2]: 0.1 | Binding of serum 2 to looped/cyclic peptides of protein X2 of SARS-CoV Urbani [2]: 0.0 | Binding of serum 6 to looped/cyclic peptides of protein X2 of SARS-CoV Urbani [2]: 0.1 | Binding of serum 37 to looped/cyclic peptides of protein X2 of SARS-CoV Urbani [2]: 0.2 | Binding of serum 62 to looped/cyclic peptides of protein X2 of SARS-CoV Urbani [2]: 0.3 | Binding of serum London to looped/cyclic peptides of protein X2 of SARS-CoV Urbani [2]: 0.1 | Binding of serum SARS-green to looped/cyclic peptides of protein X2 of SARS-CoV Urbani [2]: 0.1 | Binding of serum SARS-yellow to looped/cyclic peptides of protein X2 of SARS-CoV Urbani [2]: 0.1 | Recognition of the peptide by sera of SARS-CoV infected individuals, and form (linear, looped/cyclic) in which it is recognized [2]: recognized in linear form | Binding of a rabbit serum to linear peptides [3]: 0.5 | Binding of a rabbit serum to looped peptides [3]: 0.2
